Data from US20250049717A1, “DRY POWDER FORMULATIONS OF NARROW SPECTRUM KINASE INHIBITORS” (Pulmatrix Operating Company, Inc., priority 2021, published 2025).

Assay: Excipient compatibility study, stressed storage, impurities by HPLC
Assay type: physicochemical
Method: Compound A Content/Purity using HPLC. A high performance liquid chromatography (HPLC) method utilizing a reverse phase C18 column coupled to an ultraviolet (UV) detector has been developed for the identification, bulk content, assay, CUPMD and impurities analysis of formulations of Compound A. The reverse phase column is equilibrated to 40° C. and the autosampler is set to 5° C. The mobile phases, 10 mM ammonium acetate with 0.1% TFA (mobile phase A) and acetonitrile (mobile phase B) are used in a gradient elution from a ratio of 70:30 (A:B) to 0:100 (A:B), over the course of a 20 minute run time. Detection is by UV at 260 nm and the injection volume is 30 μL. Compound A content in powders are quantified relative to a standard curve. Formula strength can be determined by measuring the amount of Compound A in the bulk powder with HPLC, then dividing the measured amount by the nominal amount of Compound A in the powder. A formula strength of a dry powder disclosed herein may be between about 90% and about 105%, e.g., about 93%, about 94%, about 95%, about 96%, about 97%, about 98%, about 99%, about 100%, about 101%, or about 102%.
The spray dried Compound A formulations were exposed to stressed storage conditions for up to two weeks to assess the potential for excipient-induced degradation. The powders were added to 4 mL vials and exposed to 60° C./30% RH, 70° C./10% RH and 80° C./50% RH. Testing for impurities occurred at t=0, t=3 days, t=7 days and t=14 days for samples held at 60° C./30% RH and 70° C./10% RH and at t=0, t=3 days and t=7 days for samples held at 80° C./50% RH. Control samples including Formulation VI, comprising 50% micronized Compound A, 45% sodium chloride, and 5% polysorbate 80 as well as as-received micronized Compound A were included in an attempt to decouple particle size effects and/or the degradation potential of polysorbate 80.

Q: With `Cc1ccc(-n2nc(C(C)(C)C)cc2NC(=O)Nc2ccc(Oc3ccnc(Nc4ccccc4)n3)c3ccccc23)cc1` [Compound A, 1-(3-tert-butyl-1-p-tolyl-1H-pyrazol-5-yl)-3-(4-(2-(phenylamino)pyrimidin-4-yloxy)naphthalen-1-yl)urea] as the molecule, how does the “Total Impurities” value (60 C./30% RH, 3 days) read?
A: Its value is 0.28 % w/w.

Q: And the “Total Known Impurities” value (60 C./30% RH, 3 days)?
A: The value was 0.20 % w/w.

Q: And the “Total Unknown Impurities” value (60 C./30% RH, 3 days)?
A: The value was 0.08 % w/w.

Q: And the “Total Impurities” value (60 C./30% RH, 7 days)?
A: The value was 0.26 % w/w.

Q: And the “Total Known Impurities” value (60 C./30% RH, 7 days)?
A: The value was 0.17 % w/w.

Q: And the “Total Unknown Impurities” value (60 C./30% RH, 7 days)?
A: Its value is 0.09 % w/w.

Q: What about the “Total Impurities” value (60 C./30% RH, 14 days) of the same molecule?
A: The value was 0.21 % w/w.

Q: And the “Total Known Impurities” value (60 C./30% RH, 14 days)?
A: The value was 0.14 % w/w.

Q: And the “Total Unknown Impurities” value (60 C./30% RH, 14 days)?
A: Its value is 0.07 % w/w.

Q: And the “Total Impurities” value (70 C./10% RH, 3 days)?
A: The value was 0.29 % w/w.

Q: What about the “Total Known Impurities” value (70 C./10% RH, 3 days) of the same molecule?
A: The value was 0.19 % w/w.

Q: What about the “Total Unknown Impurities” value (70 C./10% RH, 3 days) of the same molecule?
A: Its value is 0.11 % w/w.

Q: What about the “Total Impurities” value (70 C./10% RH, 7 days) of the same molecule?
A: The value was 0.31 % w/w.

Q: What about the “Total Known Impurities” value (70 C./10% RH, 7 days) of the same molecule?
A: Its value is 0.17 % w/w.

Q: And the “Total Unknown Impurities” value (70 C./10% RH, 7 days)?
A: Its value is 0.14 % w/w.

Q: What about the “Total Impurities” value (70 C./10% RH, 14 days) of the same molecule?
A: Its value is 0.20 % w/w.

Q: And the “Total Known Impurities” value (70 C./10% RH, 14 days)?
A: Its value is 0.13 % w/w.

Q: And the “Total Unknown Impurities” value (70 C./10% RH, 14 days)?
A: Its value is 0.08 % w/w.

Q: And the “Total Impurities” value (80 C./50% RH, 3 days)?
A: Its value is 0.24 % w/w.

Q: What about the “Total Known Impurities” value (80 C./50% RH, 3 days) of the same molecule?
A: Its value is 0.16 % w/w.

Q: And the “Total Unknown Impurities” value (80 C./50% RH, 3 days)?
A: Its value is 0.09 % w/w.

Q: What about the “Total Impurities” value (80 C./50% RH, 7 days) of the same molecule?
A: Its value is 0.32 % w/w.

Q: And the “Total Known Impurities” value (80 C./50% RH, 7 days)?
A: The value was 0.14 % w/w.

Q: What about the “Total Unknown Impurities” value (80 C./50% RH, 7 days) of the same molecule?
A: The value was 0.18 % w/w.

Q: And the “Total Impurities” value (time point 0 days)?
A: The value was 0.29 % w/w.

Q: What about the “Total Known Impurities” value (time point 0 days) of the same molecule?
A: Its value is 0.22 % w/w.

Q: What about the “Total Unknown Impurities” value (time point 0 days) of the same molecule?
A: Its value is 0.07 % w/w.
